Assay results taken from ChEMBL document CHEMBL5241065, “If small molecules immunotherapy comes, can the prime be far behind?” (Eur J Med Chem, 2021).
One block for each compound: values may come before it.

Experiments:
[1] = target: T1, Stimulator of interferon genes protein (Homo sapiens, UniProt Q86WV6); experiment: Binding affinity to human STING assessed as dissociation constant by surface plasmon resonance
[2] = target: T2, Tyrosine-protein phosphatase non-receptor type 1 (Homo sapiens, UniProt P18031)
T2 sequence (P18031 whole entry): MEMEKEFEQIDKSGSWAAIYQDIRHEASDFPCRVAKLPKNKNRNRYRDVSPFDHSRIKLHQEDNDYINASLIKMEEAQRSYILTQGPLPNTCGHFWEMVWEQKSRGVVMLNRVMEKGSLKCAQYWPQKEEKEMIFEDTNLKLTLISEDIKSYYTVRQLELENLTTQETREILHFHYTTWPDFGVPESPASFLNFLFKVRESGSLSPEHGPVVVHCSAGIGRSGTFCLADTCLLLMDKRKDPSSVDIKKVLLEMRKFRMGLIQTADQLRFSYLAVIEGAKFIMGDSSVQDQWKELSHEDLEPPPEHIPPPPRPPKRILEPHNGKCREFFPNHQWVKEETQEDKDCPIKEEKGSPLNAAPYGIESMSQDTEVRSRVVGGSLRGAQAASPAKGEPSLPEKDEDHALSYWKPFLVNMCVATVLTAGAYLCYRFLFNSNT

[3] = target: T3, Tyrosine-protein phosphatase non-receptor type 11 (Homo sapiens, UniProt Q06124)
T3 sequence (Q06124 whole entry): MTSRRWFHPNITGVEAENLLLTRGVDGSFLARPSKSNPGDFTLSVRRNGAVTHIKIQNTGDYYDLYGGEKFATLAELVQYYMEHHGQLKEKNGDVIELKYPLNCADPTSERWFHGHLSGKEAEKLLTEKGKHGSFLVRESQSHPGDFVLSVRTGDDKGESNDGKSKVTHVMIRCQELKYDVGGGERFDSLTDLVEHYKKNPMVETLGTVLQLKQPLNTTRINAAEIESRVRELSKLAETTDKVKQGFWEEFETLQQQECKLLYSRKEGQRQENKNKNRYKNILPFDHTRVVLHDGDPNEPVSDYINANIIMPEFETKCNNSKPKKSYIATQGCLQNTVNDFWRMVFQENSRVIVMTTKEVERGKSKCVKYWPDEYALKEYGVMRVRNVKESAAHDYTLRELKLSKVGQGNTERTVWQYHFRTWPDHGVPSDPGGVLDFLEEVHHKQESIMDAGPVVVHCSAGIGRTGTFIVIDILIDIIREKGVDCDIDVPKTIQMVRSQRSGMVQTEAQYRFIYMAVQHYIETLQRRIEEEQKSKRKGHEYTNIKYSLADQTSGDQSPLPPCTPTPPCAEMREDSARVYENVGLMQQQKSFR

[4] = target: Tyrosine-protein phosphatase non-receptor type 6 (Homo sapiens, UniProt P29350)
Sequence of Tyrosine-protein phosphatase non-receptor type 6 (P29350 whole entry): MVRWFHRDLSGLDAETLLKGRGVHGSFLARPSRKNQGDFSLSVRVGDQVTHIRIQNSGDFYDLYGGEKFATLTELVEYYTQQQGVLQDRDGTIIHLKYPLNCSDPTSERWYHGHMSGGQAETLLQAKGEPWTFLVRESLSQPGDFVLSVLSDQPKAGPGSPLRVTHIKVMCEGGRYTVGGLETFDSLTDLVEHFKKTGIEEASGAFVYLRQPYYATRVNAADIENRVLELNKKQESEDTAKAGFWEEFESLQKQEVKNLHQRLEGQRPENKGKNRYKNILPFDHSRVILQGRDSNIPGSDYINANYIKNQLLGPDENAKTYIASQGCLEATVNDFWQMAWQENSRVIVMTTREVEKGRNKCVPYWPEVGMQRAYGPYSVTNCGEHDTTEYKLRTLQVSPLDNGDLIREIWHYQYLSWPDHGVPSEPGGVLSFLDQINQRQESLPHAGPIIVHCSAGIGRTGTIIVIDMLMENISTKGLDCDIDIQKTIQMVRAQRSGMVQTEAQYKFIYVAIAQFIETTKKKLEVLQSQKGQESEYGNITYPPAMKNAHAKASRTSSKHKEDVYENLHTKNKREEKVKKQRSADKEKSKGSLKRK

[5] = target: T4, Phosphatidylinositol 3,4,5-trisphosphate 5-phosphatase 1 (Homo sapiens, UniProt Q92835); experiment: Inhibition of SHIP1 (unknown origin)
T4 sequence (Q92835 whole entry): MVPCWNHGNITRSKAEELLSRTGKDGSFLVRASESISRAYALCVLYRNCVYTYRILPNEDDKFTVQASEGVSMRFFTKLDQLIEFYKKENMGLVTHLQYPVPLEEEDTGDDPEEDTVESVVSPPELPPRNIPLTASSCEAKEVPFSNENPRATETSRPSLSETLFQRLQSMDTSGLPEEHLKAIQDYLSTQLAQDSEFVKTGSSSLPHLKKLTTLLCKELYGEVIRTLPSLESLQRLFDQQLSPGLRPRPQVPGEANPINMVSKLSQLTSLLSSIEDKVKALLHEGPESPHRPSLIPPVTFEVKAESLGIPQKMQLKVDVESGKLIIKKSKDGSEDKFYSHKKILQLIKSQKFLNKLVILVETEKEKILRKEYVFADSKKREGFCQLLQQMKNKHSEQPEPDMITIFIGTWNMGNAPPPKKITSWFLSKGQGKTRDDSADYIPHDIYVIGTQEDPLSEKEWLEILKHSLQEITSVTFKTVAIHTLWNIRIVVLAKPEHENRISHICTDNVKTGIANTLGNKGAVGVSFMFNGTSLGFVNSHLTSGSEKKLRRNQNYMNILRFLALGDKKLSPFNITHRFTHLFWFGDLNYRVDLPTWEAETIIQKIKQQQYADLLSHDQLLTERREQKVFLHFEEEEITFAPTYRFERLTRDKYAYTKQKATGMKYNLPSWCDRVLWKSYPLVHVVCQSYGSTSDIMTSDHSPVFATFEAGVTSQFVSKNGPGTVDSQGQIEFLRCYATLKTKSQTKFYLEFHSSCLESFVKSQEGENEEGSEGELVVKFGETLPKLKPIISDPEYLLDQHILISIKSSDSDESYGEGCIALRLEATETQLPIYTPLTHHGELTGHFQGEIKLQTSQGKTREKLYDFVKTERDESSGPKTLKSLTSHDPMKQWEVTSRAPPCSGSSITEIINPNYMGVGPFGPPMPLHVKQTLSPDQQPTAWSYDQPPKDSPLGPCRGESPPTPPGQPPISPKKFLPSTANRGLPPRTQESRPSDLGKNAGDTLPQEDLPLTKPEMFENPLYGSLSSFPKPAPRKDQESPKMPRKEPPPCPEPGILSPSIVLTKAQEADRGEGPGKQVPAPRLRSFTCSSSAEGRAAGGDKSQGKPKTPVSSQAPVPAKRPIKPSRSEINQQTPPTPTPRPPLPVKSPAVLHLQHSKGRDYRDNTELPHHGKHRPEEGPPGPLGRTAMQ

[6] = target: T3, Tyrosine-protein phosphatase non-receptor type 11; experiment: Inhibition of SHP2 (unknown origin) at 100 mg/mL
[7] = target: T5, Arginase-2, mitochondrial (Homo sapiens, UniProt P78540)
T5 sequence (P78540 whole entry): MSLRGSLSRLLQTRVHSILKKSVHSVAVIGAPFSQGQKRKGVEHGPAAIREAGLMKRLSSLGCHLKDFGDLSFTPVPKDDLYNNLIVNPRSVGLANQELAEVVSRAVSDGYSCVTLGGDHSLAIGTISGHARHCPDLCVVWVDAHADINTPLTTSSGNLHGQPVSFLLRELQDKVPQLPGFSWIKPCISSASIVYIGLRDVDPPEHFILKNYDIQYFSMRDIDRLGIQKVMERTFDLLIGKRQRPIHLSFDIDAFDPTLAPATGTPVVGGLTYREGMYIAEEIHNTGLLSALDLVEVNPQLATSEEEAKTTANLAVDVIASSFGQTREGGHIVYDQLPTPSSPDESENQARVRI

[8] = target: T6, Arginase-1 (Homo sapiens, UniProt P05089)
T6 sequence (P05089 whole entry): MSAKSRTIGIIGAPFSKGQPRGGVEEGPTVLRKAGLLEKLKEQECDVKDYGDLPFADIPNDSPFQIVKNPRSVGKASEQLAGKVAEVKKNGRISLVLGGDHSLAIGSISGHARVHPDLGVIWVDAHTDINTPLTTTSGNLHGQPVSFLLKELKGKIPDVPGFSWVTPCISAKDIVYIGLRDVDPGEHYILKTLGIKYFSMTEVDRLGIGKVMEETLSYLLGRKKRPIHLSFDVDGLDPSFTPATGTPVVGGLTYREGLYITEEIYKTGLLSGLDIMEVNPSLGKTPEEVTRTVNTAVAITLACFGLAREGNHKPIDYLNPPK

[9] = target: T6, Arginase-1; experiment: Inhibition of recombinant human ARG1 expressed in Escherichia coli using L-arginine hydrochloride as substrate incubated for 1 hr by colorimetric assay
[10] = target: T3, Tyrosine-protein phosphatase non-receptor type 11; experiment: Inhibition of SHP (unknown origin)
[11] = target: Programmed cell death 1 ligand 1 (Homo sapiens, UniProt Q9NZQ7)
Sequence of Programmed cell death 1 ligand 1 (Q9NZQ7 whole entry): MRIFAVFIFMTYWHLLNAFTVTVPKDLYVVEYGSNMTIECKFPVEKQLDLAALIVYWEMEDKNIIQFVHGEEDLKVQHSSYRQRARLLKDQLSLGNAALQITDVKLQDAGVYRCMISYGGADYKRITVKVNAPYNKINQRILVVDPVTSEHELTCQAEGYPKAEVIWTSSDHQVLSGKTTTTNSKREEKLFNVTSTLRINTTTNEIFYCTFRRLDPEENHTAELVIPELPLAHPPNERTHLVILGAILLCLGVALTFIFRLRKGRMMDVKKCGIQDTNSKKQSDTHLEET

[12] = target: T1, Stimulator of interferon genes protein; experiment: Agonist activity at STING in human THP1-Dual cells assessed as increase in IFN-beta secretion incubated for 24 hrs; assay type: cell-based, THP-1
[13] = target: T3, Tyrosine-protein phosphatase non-receptor type 11; remark: listed apart in the source
[14] = test system: L929; experiment: cells; conditions: Mus musculus
[15] = Agonist activity at TNFalpha (unknown origin); parameters: species or system Homo sapiens
[16] = Agonist activity at IFNalpha (unknown origin); parameters: species or system Homo sapiens
[17] = target: T7, Arginase-1 (Mus musculus, UniProt Q61176); experiment: Inhibition of mouse ARG1
T7 sequence (Q61176 whole entry): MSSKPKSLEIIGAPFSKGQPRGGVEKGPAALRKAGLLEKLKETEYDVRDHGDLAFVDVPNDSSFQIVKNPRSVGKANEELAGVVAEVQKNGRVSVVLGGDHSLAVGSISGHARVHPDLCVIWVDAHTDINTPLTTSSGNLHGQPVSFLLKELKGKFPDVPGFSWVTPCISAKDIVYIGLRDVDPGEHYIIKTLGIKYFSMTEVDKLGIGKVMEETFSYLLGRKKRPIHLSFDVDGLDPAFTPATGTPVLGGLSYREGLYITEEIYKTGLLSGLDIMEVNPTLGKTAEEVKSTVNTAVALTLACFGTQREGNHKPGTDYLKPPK

[18] = target: Tyrosine-protein kinase BTK (Homo sapiens, UniProt Q06187)
Sequence of Tyrosine-protein kinase BTK (Q06187 whole entry): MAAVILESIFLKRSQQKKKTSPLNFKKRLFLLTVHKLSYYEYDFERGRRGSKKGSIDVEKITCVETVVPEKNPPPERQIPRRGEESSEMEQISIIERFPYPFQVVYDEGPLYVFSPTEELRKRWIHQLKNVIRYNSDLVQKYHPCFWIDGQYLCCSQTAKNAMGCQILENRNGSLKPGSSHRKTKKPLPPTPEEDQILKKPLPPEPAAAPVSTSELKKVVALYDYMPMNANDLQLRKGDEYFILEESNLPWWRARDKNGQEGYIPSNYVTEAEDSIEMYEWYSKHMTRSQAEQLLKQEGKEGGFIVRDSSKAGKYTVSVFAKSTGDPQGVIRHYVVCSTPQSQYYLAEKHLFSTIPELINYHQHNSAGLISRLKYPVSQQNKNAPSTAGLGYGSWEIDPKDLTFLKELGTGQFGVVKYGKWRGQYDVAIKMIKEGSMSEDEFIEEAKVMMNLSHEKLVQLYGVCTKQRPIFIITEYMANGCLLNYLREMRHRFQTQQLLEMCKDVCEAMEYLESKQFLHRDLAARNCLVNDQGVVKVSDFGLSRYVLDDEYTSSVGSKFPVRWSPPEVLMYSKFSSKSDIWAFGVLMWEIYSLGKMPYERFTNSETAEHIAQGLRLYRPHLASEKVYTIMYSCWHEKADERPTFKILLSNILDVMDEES

[19] = target: T3, Tyrosine-protein phosphatase non-receptor type 11; remark: listed apart in the source
[20] = target: T5, Arginase-2, mitochondrial; experiment: Inhibition of recombinant human ARG2 expressed in Escherichia coli using L-arginine hydrochloride as substrate incubated for 1 hr by colorimetric assay
[21] = target: Tyrosine-protein phosphatase non-receptor type 11 (Homo sapiens, UniProt Q06124, Q257L/T253M); experiment: Inhibition of SHP2 T253M/Q257L mutant (unknown origin)
Sequence of Tyrosine-protein phosphatase non-receptor type 11 (Homo sapiens, UniProt Q06124, Q257L/T253M) (Q06124 2-593 T253M/Q257L limits assumed): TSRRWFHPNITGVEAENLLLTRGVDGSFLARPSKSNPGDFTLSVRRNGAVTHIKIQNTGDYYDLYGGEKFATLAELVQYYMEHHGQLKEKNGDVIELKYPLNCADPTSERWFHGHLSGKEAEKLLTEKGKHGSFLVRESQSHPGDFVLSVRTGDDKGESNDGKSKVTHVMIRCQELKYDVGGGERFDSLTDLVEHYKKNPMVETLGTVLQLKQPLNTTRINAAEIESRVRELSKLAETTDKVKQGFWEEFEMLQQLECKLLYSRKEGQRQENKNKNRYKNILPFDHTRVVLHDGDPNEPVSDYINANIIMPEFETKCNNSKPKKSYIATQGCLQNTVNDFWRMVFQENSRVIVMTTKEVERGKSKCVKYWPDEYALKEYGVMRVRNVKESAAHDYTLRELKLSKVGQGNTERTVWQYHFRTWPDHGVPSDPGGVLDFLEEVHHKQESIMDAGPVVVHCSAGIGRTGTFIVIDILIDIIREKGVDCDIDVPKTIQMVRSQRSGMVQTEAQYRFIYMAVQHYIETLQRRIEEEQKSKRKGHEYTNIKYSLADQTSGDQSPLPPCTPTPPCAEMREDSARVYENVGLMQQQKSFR

[22] = target: Tyrosine-protein phosphatase non-receptor type 11 (Homo sapiens, UniProt Q06124); experiment: Inhibition of SHP2 1-525 mutant (unknown origin)
[23] = Binding affinity to A2aR (unknown origin); parameters: species or system Homo sapiens
[24] = target: Tyrosine-protein phosphatase non-receptor type 11 (Homo sapiens, UniProt Q06124, E76K); experiment: Inhibition of SHP2 (unknown origin) E76K mutant
Sequence of Tyrosine-protein phosphatase non-receptor type 11 (Homo sapiens, UniProt Q06124, E76K) (Q06124 2-593 E76K limits assumed): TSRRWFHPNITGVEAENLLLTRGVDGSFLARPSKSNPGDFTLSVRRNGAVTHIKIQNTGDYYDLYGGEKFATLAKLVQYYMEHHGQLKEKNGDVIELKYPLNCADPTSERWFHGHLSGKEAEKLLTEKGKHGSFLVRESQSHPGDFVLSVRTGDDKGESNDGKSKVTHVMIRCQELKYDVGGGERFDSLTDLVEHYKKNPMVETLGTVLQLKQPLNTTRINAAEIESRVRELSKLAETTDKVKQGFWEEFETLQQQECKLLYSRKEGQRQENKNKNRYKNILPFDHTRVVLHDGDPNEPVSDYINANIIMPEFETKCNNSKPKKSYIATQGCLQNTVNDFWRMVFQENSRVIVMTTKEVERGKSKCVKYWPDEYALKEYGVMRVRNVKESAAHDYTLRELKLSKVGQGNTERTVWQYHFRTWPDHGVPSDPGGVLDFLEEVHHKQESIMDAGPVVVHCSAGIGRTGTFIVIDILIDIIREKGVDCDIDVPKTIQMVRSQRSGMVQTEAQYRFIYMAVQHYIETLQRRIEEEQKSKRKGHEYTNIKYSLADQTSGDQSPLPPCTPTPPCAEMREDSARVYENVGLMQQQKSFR

T1 sequence (Q86WV6 whole entry): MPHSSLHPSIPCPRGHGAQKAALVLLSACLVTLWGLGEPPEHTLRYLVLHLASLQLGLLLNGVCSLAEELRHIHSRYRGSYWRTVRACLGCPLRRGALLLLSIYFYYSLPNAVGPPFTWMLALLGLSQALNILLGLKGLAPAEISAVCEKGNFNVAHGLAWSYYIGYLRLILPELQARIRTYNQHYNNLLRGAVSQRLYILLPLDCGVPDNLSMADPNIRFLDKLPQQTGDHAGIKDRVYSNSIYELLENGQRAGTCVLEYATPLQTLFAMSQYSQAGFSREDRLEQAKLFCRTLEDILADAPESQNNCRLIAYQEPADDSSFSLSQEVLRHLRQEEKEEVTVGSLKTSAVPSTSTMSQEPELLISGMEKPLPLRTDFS

Kd [1]: 137000 nM
SMILES: COc1c(O)cc2oc3cc(O)c(CC=C(C)C)c(O)c3c(=O)c2c1CC=C(C)C [MANGOSTIN]

IC50 [2]: 2100 nM
IC50 [3]: 5500 nM
IC50 [4]: 15700 nM
SMILES: Cn1cc(-c2cn(CC(=O)Nc3nc4ccccc4s3)nn2)c2cc(C(=O)O)c(O)cc21

IC50 [5]: 2500 nM
SMILES: CC(C)CCC[C@@H](C)[C@H]1CC[C@H]2[C@]3(C)CC[C@H]4C[C@H](N)CC[C@]4(C)[C@H]3CC[C@@]21C

IC50 [6]: > 100000 nM
SMILES: COC(=O)c1cccc(N/N=C2\C(=O)Nc3ccc(S(=O)(=O)NCc4ccc(F)cc4)cc32)c1

IC50 [7]: 1600 nM
IC50 [8]: 3600 nM
IC50 [9]: 150 nM
SMILES: N=C(NO)NCCC[C@H](N)C(=O)O

IC50 [10]: 71 nM
SMILES: Cc1nc(N2CCC(C)(N)CC2)c(CO)nc1-c1cccc(Cl)c1Cl

SMILES: N#Cc1cncc(COc2cc(OC3CCc4c(-c5ccccc5)cccc43)c(Cl)cc2CN[C@@H](CO)C(=O)O)c1 (stereo not given in full)
IC50 [11]: < 100 nM

EC50 [12]: 130 nM
SMILES: CCn1nc(C)cc1C(=O)/C=C1\Nc2cc(C(N)=O)cc(CCCN3CCOCC3)c2N1C/C=C/CN1/C(=C/C(=O)c2cc(C)nn2CC)Nc2cc(C(N)=O)cc(OC)c21

IC50 [2]: 14500 nM
IC50 [3]: 30000 nM
IC50 [4]: 30000 nM
SMILES: O=C1/C(=N\Nc2ccc(S(=O)(=O)O)cc2)C(c2ccc([N+](=O)[O-])cc2)NN1c1ccccc1 (stereo not given)

IC50 [2]: 1690 nM
SMILES: O=C1Nc2ccc(S(=O)(=O)NCc3ccc(F)cc3)cc2/C1=N/Nc1cccc(C(=O)O)c1

IC50 [3]: 47000 nM
IC50 [13]: 47000 nM
SMILES: O=C1Nc2cc(S(=O)(=O)O)ccc2C1/N=N/c1ccccc1[N+](=O)[O-] (stereo not given)

SMILES: NC1=NC2C(N=CN2[C@@H]2O[C@@H]3COP(=O)(O)O[C@H]4[C@@H](O)[C@H](N5C=NC6C(=O)NC(N)=NC65)O[C@@H]4COP(=O)(O)O[C@H]3[C@H]2O)C(=O)N1 (stereo not given in full)
EC50 [14]: > 500 nM

pEC50 [15]: 6.5
pEC50 [16]: 9.3
SMILES: CCC[C@H](C)Oc1nc(N)c2[nH]c(=O)n(CCCCCN3CCCCC3)c2n1 [GSK-2245035]

IC50 [7]: 8.5 nM
IC50 [8]: 5 nM
SMILES: N[C@@H](CCCCB(O)O)C(=O)O

IC50 [2]: 19000 nM
IC50 [3]: 630 nM
IC50 [4]: 1800 nM
SMILES: CCOC(=O)c1ccc(N2NC(c3ccc([N+](=O)[O-])cc3)/C(=N/Nc3ccc(S(=O)(=O)O)cc3)C2=O)cc1 (stereo not given)

IC50 [2]: 14300 nM
IC50 [4]: 335 nM
SMILES: O=S(=O)(O)c1ccc2cc(/N=N/c3cc(S(=O)(=O)O)c4cccnc4c3O)ccc2c1

IC50 [17]: 11200 nM
SMILES: OC[C@H]1O[C@H](Oc2cc(/C=C/c3cc(O)cc(O)c3)ccc2O)[C@H](O)[C@@H](O)[C@@H]1O

IC50 [9]: 509 nM
SMILES: N[C@](CCCCB(O)O)(CCN1CCCCC1)C(=O)O

IC50 [18]: 0.5 nM
SMILES: Cc1c(-c2c(F)cc(C(N)=O)c3[nH]c4c(c23)CC[C@H](C(C)(C)O)C4)cccc1N1C(=O)c2cccc(F)c2C(C)C1=O (stereo not given in full)

IC50 [7]: 51 nM
SMILES: N=C(NO)NCC[C@H](N)C(=O)O [NOR-NOHA]

IC50 [19]: 23 nM
IC50 [10]: 23 nM
SMILES: C[C@@H]1OCC2(CCN(c3nc(N)c(Sc4cccnc4C(F)(F)F)c(=O)n3O)CC2)[C@@H]1N

IC50 [9]: 200 nM
IC50 [20]: 290 nM
SMILES: N[C@@](CCCCB(O)O)(C(=O)O)C1CCN(Cc2ccc(Cl)c(Cl)c2)CC1

SMILES: COc1cccc(-c2nnc3n(Cc4ccccc4Cl)c(=O)c4ccccc4n23)c1O
IC50 [21]: 60000 nM
IC50 [22]: 60000 nM

IC50 [9]: 86 nM
IC50 [20]: 296 nM
SMILES: NC(CCCCB(O)O)(C(=O)O)C1CCN(Cc2ccc(Cl)cc2Cl)CC1 (stereo not given)

Ki [23]: 8.2 nM
SMILES: Nc1nc(-n2cccn2)nc(-n2cccn2)c1Br [PBF-509]

IC50 [7]: 30 nM
IC50 [8]: 270 nM
SMILES: N[C@@H](CSCCB(O)O)C(=O)O

IC50 [19]: 9.8 nM
IC50 [24]: 7670 nM
SMILES: CCOc1cc(O)c(C(=O)/C=C/c2ccc(Cl)cc2Cl)cc1CN1CCC=C(C2C(=O)Nc3ccccc32)C1 (stereo not given)
